Data reported in PubChem BioAssay (NCI).
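Interpolation was linear, between the two tested concentrations surrounding the appropriate level; five concentrations were tested over 48 hours in 96-well plates. GI50 = concentration required for 50% inhibition of growth. At the TGI there is no net growth.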

Experiments:
Experiment in all cases: NCI tumour cell line growth inhibition, 48 h
NCI/ADR-RES ovarian = test system: NCI/ADR-RES ovarian
MOLT-4 leukemia = test system: MOLT-4 leukemia
IGROV1 ovarian = test system: IGROV1 ovarian
HS 578T breast = test system: HS 578T breast
PC-3 prostate = test system: PC-3 prostate
HL-60(TB) leukemia = test system: HL-60(TB) leukemia
HOP-92 NSCLC = test system: HOP-92 NSCLC
OVCAR-4 ovarian = test system: OVCAR-4 ovarian
MCF7 breast = test system: MCF7 breast
U251 CNS = test system: U251 CNS
SF-295 CNS = test system: SF-295 CNS
NCI-H226 lung = test system: NCI-H226 lung
EKVX NSCLC = test system: EKVX NSCLC
MDA-MB-435 = test system: MDA-MB-435
OVCAR-3 ovarian = test system: OVCAR-3 ovarian
NCI-H23 lung = test system: NCI-H23 lung
CAKI-1 renal = test system: CAKI-1 renal
SN12C renal = test system: SN12C renal
SF-268 CNS = test system: SF-268 CNS
HT29 colon = test system: HT29 colon
M14 melanoma = test system: M14 melanoma
SK-MEL-2 melanoma = test system: SK-MEL-2 melanoma
A549 NSCLC = test system: A549 NSCLC
HCT-116 colon = test system: HCT-116 colon
T-47D breast = test system: T-47D breast
786-0 renal = test system: 786-0 renal
UO-31 renal = test system: UO-31 renal
UACC-257 melanoma = test system: UACC-257 melanoma
NCI-H522 lung = test system: NCI-H522 lung
MALME-3M melanoma = test system: MALME-3M melanoma
SNB-19 CNS = test system: SNB-19 CNS
K-562 leukemia = test system: K-562 leukemia
KM12 colon = test system: KM12 colon
CCRF-CEM leukemia = test system: CCRF-CEM leukemia
RPMI-8226 leukemia = test system: RPMI-8226 leukemia
UACC-62 melanoma = test system: UACC-62 melanoma
COLO 205 colon = test system: COLO 205 colon
OVCAR-8 ovarian = test system: OVCAR-8 ovarian
SF-539 CNS = test system: SF-539 CNS
BT-549 breast = test system: BT-549 breast
LOX IMVI melanoma = test system: LOX IMVI melanoma
SK-OV-3 ovarian = test system: SK-OV-3 ovarian
RXF 393 renal = test system: RXF 393 renal
NCI-H460 lung = test system: NCI-H460 lung
TK-10 renal = test system: TK-10 renal
MDA-MB-231 breast = test system: MDA-MB-231 breast
HCC-2998 colon = test system: HCC-2998 colon
SK-MEL-5 melanoma = test system: SK-MEL-5 melanoma
SW-620 colon = test system: SW-620 colon
ACHN renal = test system: ACHN renal
A498 renal = test system: A498 renal
HCT-15 colon = test system: HCT-15 colon
OVCAR-5 ovarian = test system: OVCAR-5 ovarian
DU-145 prostate = test system: DU-145 prostate
HOP-62 NSCLC = test system: HOP-62 NSCLC
SK-MEL-28 melanoma = test system: SK-MEL-28 melanoma

For `COc1ccc(Cl)cc1Nc1nc(C(F)(F)F)ccc1C(=O)N/N=C/c1ccc(Cl)cc1`, the GI50 (NCI/ADR-RES ovarian) was 6.35 µM, the TGI (NCI/ADR-RES ovarian) was > 100 µM and the GI50 (MOLT-4 leukemia) was 1.76 µM. It also gave a TGI (MOLT-4 leukemia) of 11.1 µM, a GI50 (IGROV1 ovarian) of 11 µM and a TGI (IGROV1 ovarian) of 79.1 µM. The GI50 (HS 578T breast) was 22.3 µM, the TGI (HS 578T breast) was > 100 µM and the GI50 (PC-3 prostate) was > 100 µM. For the same molecule, the TGI (PC-3 prostate) was > 100 µM, the GI50 (HL-60(TB) leukemia) was 7.58 µM and the TGI (HL-60(TB) leukemia) was 22 µM. For the same molecule, the GI50 (HOP-92 NSCLC) was 11.4 µM, the TGI (HOP-92 NSCLC) was 67.2 µM and the GI50 (OVCAR-4 ovarian) was 0.74 µM. The TGI (OVCAR-4 ovarian) was > 100 µM, the GI50 (MCF7 breast) was 1.05 µM and the TGI (MCF7 breast) was > 100 µM. The GI50 (U251 CNS) was 4.79 µM, the TGI (U251 CNS) was 69.3 µM and the GI50 (SF-295 CNS) was 2.09 µM. For the same molecule, the TGI (SF-295 CNS) was 12.1 µM, the GI50 (NCI-H226 lung) was 4.18 µM and the TGI (NCI-H226 lung) was > 100 µM. For the same molecule, the GI50 (EKVX NSCLC) was 4.45 µM, the TGI (EKVX NSCLC) was > 100 µM and the GI50 (MDA-MB-435) was > 100 µM. The TGI (MDA-MB-435) was > 100 µM, the GI50 (OVCAR-3 ovarian) was 0.576 µM and the TGI (OVCAR-3 ovarian) was 1.66 µM. The GI50 (NCI-H23 lung) was 9.57 µM, the TGI (NCI-H23 lung) was 42 µM and the GI50 (CAKI-1 renal) was 5.37 µM. The TGI (CAKI-1 renal) was 29.7 µM, the GI50 (SN12C renal) was 8.67 µM and the TGI (SN12C renal) was > 100 µM. For the same molecule, the GI50 (SF-268 CNS) was 1.96 µM, the TGI (SF-268 CNS) was 27.9 µM and the GI50 (HT29 colon) was 7.4 µM. For the same molecule, the TGI (HT29 colon) was > 100 µM, the GI50 (M14 melanoma) was 3.69 µM and the TGI (M14 melanoma) was > 100 µM. For the same molecule, the GI50 (SK-MEL-2 melanoma) was 0.954 µM, the TGI (SK-MEL-2 melanoma) was > 100 µM and the GI50 (A549 NSCLC) was 37.7 µM. The TGI (A549 NSCLC) was > 100 µM, the GI50 (HCT-116 colon) was 3.39 µM and the TGI (HCT-116 colon) was 19.9 µM. The GI50 (T-47D breast) was 0.971 µM, the TGI (T-47D breast) was > 100 µM and the GI50 (786-0 renal) was 1.22 µM. The TGI (786-0 renal) was 7.09 µM, the GI50 (UO-31 renal) was 1.03 µM and the TGI (UO-31 renal) was > 100 µM. The GI50 (UACC-257 melanoma) was 7.91 µM, the TGI (UACC-257 melanoma) was > 100 µM and the GI50 (NCI-H522 lung) was 4.16 µM. For the same molecule, the TGI (NCI-H522 lung) was 42.5 µM, the GI50 (MALME-3M melanoma) was 1.36 µM and the TGI (MALME-3M melanoma) was 9.2 µM. The GI50 (SNB-19 CNS) was 6.42 µM, the TGI (SNB-19 CNS) was > 100 µM and the GI50 (K-562 leukemia) was 3.85 µM. For the same molecule, the TGI (K-562 leukemia) was 40.5 µM, the GI50 (KM12 colon) was 5.16 µM and the TGI (KM12 colon) was > 100 µM. The GI50 (CCRF-CEM leukemia) was 0.594 µM, the TGI (CCRF-CEM leukemia) was 10.3 µM and the GI50 (RPMI-8226 leukemia) was 3.5 µM. For the same molecule, the TGI (RPMI-8226 leukemia) was > 100 µM, the GI50 (UACC-62 melanoma) was 8.01 µM and the TGI (UACC-62 melanoma) was 40.9 µM. The GI50 (COLO 205 colon) was 2.76 µM, the TGI (COLO 205 colon) was > 100 µM and the GI50 (OVCAR-8 ovarian) was 5.1 µM. For the same molecule, the TGI (OVCAR-8 ovarian) was > 100 µM, the GI50 (SF-539 CNS) was 6.63 µM and the TGI (SF-539 CNS) was 27.5 µM. It also gave a GI50 (BT-549 breast) of 0.108 µM, a TGI (BT-549 breast) of 0.932 µM and a GI50 (LOX IMVI melanoma) of 8.08 µM. For the same molecule, the TGI (LOX IMVI melanoma) was > 100 µM, the GI50 (SK-OV-3 ovarian) was 1.95 µM and the TGI (SK-OV-3 ovarian) was 22.9 µM. The GI50 (RXF 393 renal) was 4.56 µM, the TGI (RXF 393 renal) was 53.2 µM and the GI50 (NCI-H460 lung) was 1.82 µM. For the same molecule, the TGI (NCI-H460 lung) was > 100 µM, the GI50 (TK-10 renal) was 0.513 µM and the TGI (TK-10 renal) was 16.8 µM. The GI50 (MDA-MB-231 breast) was 5.44 µM, the TGI (MDA-MB-231 breast) was > 100 µM and the GI50 (HCC-2998 colon) was 2.67 µM. For the same molecule, the TGI (HCC-2998 colon) was > 100 µM, the GI50 (SK-MEL-5 melanoma) was 2.23 µM and the TGI (SK-MEL-5 melanoma) was 23.5 µM. For the same molecule, the GI50 (SW-620 colon) was 8.2 µM, the TGI (SW-620 colon) was > 100 µM and the GI50 (ACHN renal) was 6.4 µM. The TGI (ACHN renal) was 66.2 µM, the GI50 (A498 renal) was 18.2 µM and the TGI (A498 renal) was > 100 µM. The GI50 (HCT-15 colon) was 2.41 µM, the TGI (HCT-15 colon) was > 100 µM and the GI50 (OVCAR-5 ovarian) was 6.48 µM. The TGI (OVCAR-5 ovarian) was > 100 µM, the GI50 (DU-145 prostate) was 7.02 µM and the TGI (DU-145 prostate) was > 100 µM. It also gave a GI50 (HOP-62 NSCLC) of 3.51 µM, a TGI (HOP-62 NSCLC) of 24 µM and a GI50 (SK-MEL-28 melanoma) of 74 µM. For the same molecule, the TGI (SK-MEL-28 melanoma) was > 100 µM.
